Columns and labels:
[1] = test system: breast cancer MCF7 cells; experiment: Cell viability (CCK8) in breast cancer MCF7 cells; assay type: cell-based, human; details: different concentrations, compared with parent drug 5-FU
Experimental: FIGS. 2A and 2B illustrate the anticancer effects and selectivity of 5-FU and compounds 1a-1c. Cell viability was analyzed after the breast cancer MCF7 cells (FIG. 2A) and normal MEC1 cells (FIG. 2B) were treated with 5-FU or compounds 1a-1c at different concentrations. Data are presented as mean±SD, n=4.
Cell Counting Kit-8 (CCK8, Dojingo) was used to carry out the cytotoxicity assessment of the prodrugs. Seeded cells were treated with varying compound concentrations for 48-72 h and the CCK8 kit was used to measure the cytotoxicity. For NAC experiments, this ROS scavenger was pre-incubated with the cells for 2 h and then co-incubated with the prodrugs for additional 48 hours unless otherwise noted.
The anticancer effects of new compounds 1a and 1b were tested using the breast cancer MCF7 cells and normal MEC1 cells (FIGS. 2A and 2B). […] These differential killing results highlight the specificity of new prodrugs 1a-1b for cancer cells over normal cells. […] To further verify the role of ROS in the drug release process, the MTT assays was performed, using MCF7 cells pretreated with the ROS scavenger N-Acetyl-Cysteine (NAC).

[2] = test system: caspase 3; experiment: Western blot of caspase 3 in MCF7 cells; assay type: cell-based, human; details: 48 h
Experimental: (§1) FIGS. 4A and 4B illustrate the effect of compounds 1a-1b in apoptosis. FIG. 4A: immunofluorescence of DNA cleavage protein γH2Ax was enhanced by using 5-FU and prodrugs 1a-1b. FIG. 4B: immunoblot analysis of MCF-7 cells treated with 5-FU, prodrugs 1a-1b for apoptosis markers PARP1 and Caspase 3. The cells were treated for 48 h with the indicated concentrations of compounds.
(§2) Western Blot Analysis. Treated cells were washed once with PBS and lysed with RIPA lysis buffer (Santa Cruz Biotechnology, SCBT, #24948) supplemented with sodium orthovanadate, PMSF, protease and phosphatase inhibitor cocktails (Sigma Aldrich). Cell lysates were centrifuge for 15 min at 14,000×g and the supernatant was used for immunoblotting. Protein concentration was normalized for the samples and resolved on a 10-13% SDS-PAGE gel. Following transfer to nitrocellulose membrane, specific mouse primary antibodies from SCBT (PARP1 #sc-8007, caspase 3 #sc-7272) and Cell Signaling (cleaved PARP1 #9541, cleaved caspase-3 #9664) were added and incubated overnight. Secondary antibodies corresponding to the host of the primary antibodies was further incubated with the membrane and washed three times to remove excess antibodies. Odyssey Fc Imaging System (LI-COR, Lincoln, Nebr.) was used to quantify the chemiluminescent of the proteins.
(§3) To understand the mechanism of action of prodrugs 1a-1b, the impact of the treatment of compounds 1a-1b on the γH2AX formation in MCF7 cells were determined using immunofluorescence assay (FIG. 4A). […] The effects of prodrugs 1a-1b on the PARP1 and caspase 3 cleavage in MCF7 cells were also determined using Western blots assays (FIG. 4B). […] Treatment of 5-FU and compounds 1a-1b increased the levels of cleavage of PARP1 and caspase 3 in MCF7 cells, as compared with that in the vehicle-treated controls. Therefore, prodrugs 1a-1b, similar to 5-FU, can induce MCF7 cell apoptosis, which might contribute to their pharmacological actions.

[3] = test system: wild-type C57BL/6 male mice; experiment: Acute toxicity in mice; assay type: in vivo; details: 100 mg/kg i.p. every other day for 15 days, C57BL/6 male mice
Experimental: FIGS. 5A and 5B illustrate the survival rate (FIG. 5A) and body weight (FIG. 5B) curves of the various groups of mice. […] Mice were treated every other day by intraperitoneal (i.p.) injection for 15 days, the survival and body weights of the mice were recorded after treatment.
Mice were treated every other day by intraperitoneal (i.p.) injection for 15 days, the survival and body weights of the mice were recorded after treatment.

[4] = molecular target: dihydropyrimidine dehydrogenase (DPD) (Homo sapiens, UniProt Q12882); details: injected 5-FU, degradation into 5-FUH2; cited from earlier work
Chain of dihydropyrimidine dehydrogenase (DPD) (Q12882 4-1025): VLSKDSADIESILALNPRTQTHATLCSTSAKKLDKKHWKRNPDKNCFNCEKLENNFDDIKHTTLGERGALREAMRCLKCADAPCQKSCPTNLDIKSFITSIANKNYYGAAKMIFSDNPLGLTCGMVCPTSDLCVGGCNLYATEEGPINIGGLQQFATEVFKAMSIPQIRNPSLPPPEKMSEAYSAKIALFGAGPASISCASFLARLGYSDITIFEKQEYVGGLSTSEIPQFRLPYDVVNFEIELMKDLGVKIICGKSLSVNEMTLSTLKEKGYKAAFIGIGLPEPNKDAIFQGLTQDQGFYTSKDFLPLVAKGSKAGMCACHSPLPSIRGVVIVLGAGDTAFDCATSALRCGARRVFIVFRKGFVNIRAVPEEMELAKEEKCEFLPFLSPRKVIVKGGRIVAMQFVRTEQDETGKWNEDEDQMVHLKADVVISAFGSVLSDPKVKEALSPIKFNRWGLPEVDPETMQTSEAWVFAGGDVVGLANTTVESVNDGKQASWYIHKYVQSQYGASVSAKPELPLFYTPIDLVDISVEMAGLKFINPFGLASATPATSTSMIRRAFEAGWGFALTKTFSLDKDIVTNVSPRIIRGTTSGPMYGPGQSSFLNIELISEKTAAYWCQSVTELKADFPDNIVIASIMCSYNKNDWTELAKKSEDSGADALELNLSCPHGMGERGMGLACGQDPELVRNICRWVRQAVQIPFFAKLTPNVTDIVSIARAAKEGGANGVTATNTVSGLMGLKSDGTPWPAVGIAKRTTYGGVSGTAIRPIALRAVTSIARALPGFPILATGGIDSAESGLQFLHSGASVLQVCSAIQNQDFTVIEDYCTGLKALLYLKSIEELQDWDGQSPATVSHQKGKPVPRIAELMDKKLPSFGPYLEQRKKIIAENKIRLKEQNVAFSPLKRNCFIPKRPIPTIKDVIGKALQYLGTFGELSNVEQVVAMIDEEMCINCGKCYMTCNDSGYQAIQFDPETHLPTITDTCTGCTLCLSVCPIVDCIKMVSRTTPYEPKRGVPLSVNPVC

[5] = test system: γH2AX; experiment: γH2AX immunofluorescence assay in MCF7 cells; assay type: cell-based, human; details: 48 h
Experimental: as §1
Immunohistochemistry Analysis. MCF7 cells were seeded on poly-D-lysine coated slides. Compounds were incubated with cells for 48 h. Following treatment, cells were washed once in PBS and fixed in 10% formalin for 20 min at room temperature. Methanol was used to permeabilize the cells for 10 min and PBS wash was carried out. Bovine serum albumin was used for 1 h blocking and primary antibodies for γH2AX (SCBT, #sc-517348) was incubated with the cells overnight. Fluorescent secondary antibodies were incubated with cells along with DAPI. Cells were washed trice with PBS and the slides were mounted prior to confocal imaging.
as §3

[6] = test system: PARP1; experiment: Western blot of PARP1 in MCF7 cells; assay type: cell-based, human; details: 48 h
Experimental: as §1, §2, §3

[7] = test system: human colorectal cancer cells SW480; experiment: Anti-proliferative activity in SW480 cells; assay type: cell-based; details: 10 μM, compared to parent drug 6MP
Experimental: FIG. 12 illustrates the anticancer effects and selectivity of 6MP (10 μM), prodrugs YA6131 (10 μM) and YA6075 (10 μM), evaluated in human colorectal cancer cells SW480 and normal HEK293 cells.
Anticancer effects and selectivity of 6MP (10 μM), prodrugs YA6131 (10 μM) and YA6075 (10 μM): the anticancer activities of prodrugs YA6131 and YA6075 were evaluated in comparison to the parent drug 6MP using the human colorectal cancer cells SW480 and normal HEK293 cells (FIG. 12). […] Without wishing to be bound by any particular theory, it was reasoned that the difference of the anticancer effects of the two prodrugs were due to their different release kinetics of the two compounds in the particular cells used.

[8] = compared to vehicle-treated cells
[9] = compared to vehicle-treated controls

With `O=c1[nH]c(=O)n(Cc2ccccc2)cc1F` [Compound 1c, 1-Benzyl-5-fluoropyrimidine-2,4(1H,3H)-dione] as the compound, how does the “antiproliferative activity / anticancer effects” value [1] read?
The value was “no obvious antiproliferative effects”.

What does the source list for `O=c1[nH]cc(F)c(=O)[nH]1` [Compound 5-FU, 5-fluorouracil, reference compound]?
expression level of caspase 3 [2, 8]: significantly reduced; level of cleavage of caspase 3 [2, 9]: increased; survival / animal death [3]: killed all mice on the twelfth day; share of injected doses deactivated by DPD [4]: more than 85%; γH2AX formation [5]: enhanced; expression level of PARP1 [6, 8]: significantly reduced; level of cleavage of PARP1 [6, 9]: increased

Which anti-proliferative activity [7] does the source give for `CC1(C)OB(c2ccc(Cn3cnc4c(S)ncnc43)cc2)OC1(C)C` [YA6075, 9-(4-(4,4,5,5-Tetramethyl-1,3,2-dioxaborolan-2-yl)benzyl)-9H-purine-6-thiol] here?
The anti-proliferative activity was “reduced effect”.

Which anti-proliferative activity [7] does the source give for `CC1(C)OB(c2ccc(CSc3ncnc4[nH]cnc34)cc2)OC1(C)C` [YA6131] here?
Its anti-proliferative activity is “similarly potent anti-proliferative activity as compared to 6MP”.
